Source: ChEMBL document CHEMBL3351598, “Strategies for the modulation of phase II metabolism in a series of PKCε inhibitors” (Bioorg Med Chem Lett, 2014)

Test: AUC in beagle dog at 10 mg/kg, iv bolus dose
Assay type: ADME, organism-based, Canis lupus familiaris
Parameters: dose 10 mg/kg, route intravenous
Conditions: plasma

AUC	Compound
4400 ng·h/mL	N#CC1(c2cc(C[C@@H](O)CO)cc(-c3ccnc4[nH]nc(C(F)(F)F)c34)c2)CC1
130 ng·h/mL	N#CC1(c2cc(CCO)cc(-c3ccnc4[nH]nc(C(F)(F)F)c34)c2)CC1
